We go through 2 compounds from patent US20190290182A1, “METHOD OF DIAGNOSTIC RELEVANCE BASED ON TASTE RECOGNITION” (RANVIER HEALTH LIMITED, priority 2016, published 2019).

Molecules are shown by their SMILES. “Also recorded” adds a separate entry of the source.

One experiment deals with healthy volunteers. Conditions: healthy individuals; acute dose; two hours after administration; cited from earlier work.
The test system of experiment [1] is individuals with untreated clinical depression. As to the kind of experiment: Taste recognition thresholds before and two hours after acute paroxetine (SSRI) challenge. The experiment is classed as in vivo, human. Here is the method:
Taste responses to sweet, salt, bitter and sour stimuli were then determined. Individuals were informed of which taste modality (sweet, bitter, salt, sour) they were receiving but were given no indication of whether the tester thought they would be able to recognise the taste or not.
The taste modalities were applied in solution to the tip of the tongue, using a cotton bud saturated with the solution at room temperature and placed on the tongue for approximately 5 seconds. Without closing their mouth the subject was asked to indicate whether or not they could taste the stimulus at that concentration. Between each stimulus application a 20 second inter-stimulus interval was adhered to during which the subject would rinse their mouth with approximately 25 ml of deionized water.
Each concentration of stimulus was presented to the subject five times in total, and the percentage of positive responses at each concentration determined. Subjects were first presented with a solution above threshold and thereafter, stimuli were presented in a pseudorandom order in concentrations representing ¼ log steps between the lowest (undetectable, 0% detection) to the highest (always detectable, 100% detection) concentrations, with each concentration being presented 5 times.
The range of concentrations for each taste modality was different, as detailed below: • Sweet (1M-300 μM sucrose) • Bitter (300 μM-0.3 μM quinine hydrochloride) • Salt (1M-0.2 mM NaCl) • Sour (100 mM-0.56 mM citric acid; C6H8O7).
Taste psychometric functions before and after paroxetine administration were also determined for all the individuals with previously untreated depression. From these curves, taste recognition thresholds (the concentration at which the subject would recognize the taste 50% of the time) were calculated before and after challenge in order to determine the degree of change in taste recognition that occurred (Heath et al., (2006) Journal of Neuroscience 26(49): 12664-71).
Taste recognition thresholds were determined by testing a solution of a taste modality (sweet, salt, sour, bitter) on the tip of the tongue, and the subject confirmed whether or not they recognised the taste. Referring to FIG. 3, a curve was then constructed of the number of correct identifications against the concentration of the taste in the solution. The taste recognition threshold was calculated from the curve as the concentration at which the subject would correctly identify the taste 50% of the time (Heath, Melichar, Nutt & Donaldson (2006) Journal of Neuroscience 26(49): 12664-71). […]
Patients referred to a depression clinic in Hyderabad, India were screened and recruited to the study. They had their taste recognition threshold assessed before and two hours after taking an antidepressant (Paroxetine, SSRI). […]

`Fc1ccc([C@@H]2CCNC[C@H]2COc2ccc3c(c2)OCO3)cc1` [paroxetine]: the “bitter and sweet taste thresholds” value with healthy volunteers is recorded as “significantly reduced”. For the same compound, the “post-challenge taste recognition thresholds versus healthy controls” value in experiment [1] (all taste modalities, controls without challenge) was “significantly higher”. In experiment [1] (salt, sweet, sour and bitter, Kruskal Wallis, post-hoc Dunn's tests), the “post-challenge taste recognition thresholds versus pre-challenge values (statistical significance)” value is on record as “not significantly different”. The “taste recognition thresholds after acute challenge compared with baseline” value in experiment [1] (salt, sweet, sour and bitter, paroxetine 20 mg, two hours after challenge, n=47) was “reduced; also recorded: generally become lower”. For the same compound, the “effect on depressive symptoms” value in experiment [1] (two hours after acute challenge) was “lack of immediate effect”.

Take `CCOc1ccccc1OC(c1ccccc1)C1CNCCO1` (stereo not drawn) [reboxetine]: the “bitter and sour thresholds” value in the experiment on healthy volunteers is “significantly reduced”.
